Test results: patent US7432369B2, “Pyridyl-substituted porphyrin compounds and methods of use thereof” (Inotek Pharmaceuticals Corporation, priority 2004, dated 2008)

Experiments:
[1] = tested on: mice subjected to streptozocin diabetes; assay: Multiple low dose streptozocin diabetes; assay type: in vivo; details: 3 or 10 mg/kg/day ip
Excerpt: Mice were subjected to multiple low dose streptozocin diabetes as previously described in J. G. Mabley et al., Br J Pharmacol., July 2001;133(6):909-19.

[2] = tested on: rats subjected to heterotopic heart transplantation; assay: Heterotopic heart transplantation; assay type: in vivo, rat; details: 10 mg/kg/day orally
Procedure: Rats were subjected to heterotopic heart transplantation as described previously in H. Jiang et al., Transplantation, Jun. 15, 2002;73(11):1808-17. Compound 3 was administered at a dose of 10 mg/kg/day orally.

[3] = tested on: mice subjected to heart failure; assay: Heart failure induced by aortic banding; assay type: in vivo; details: 3 mg/kg/day orally
Procedure: Mice were subjected to heart failure induced by aortic banding as previously described in C. Y. Xiao et al., J Pharmacol Exp Ther., March 2005;312(3):891-8. Compound 3 was administered at a dose of 3 mg/kg/day orally.

RAW murine macrophages = assay: Oxidant or free-radical damage, cell viability (mitochondrial respiration); assay type: cell-based; details: RAW cells treated with oxidants and free radicals
Procedure: (§1) The four right-hand most bar graphs represent cytotoxin plus […] of Compound 3.
(§2) A549 human epithelial cells and RAW murine macrophages were grown and cultured, then treated with oxidants and free radicals in the presence or absence of varying concentrations of Compound 3 according to the method of C. Szabo et al., Mol Med., October 2002;8(10):571-80. […] Protection is by 3-100 μM of Compound 3.

[4] = tested on: A549 human epithelial cells; assay: as above; assay type: cell-based; details: A549 cells treated with oxidants and free radicals
Procedure: as §1, §2

[5] = tested on: rats subjected to hemorrhagic shock; assay: Hemorrhagic shock and resuscitation; assay type: in vivo, rat; details: 6 mg/kg i.v., 5 minutes prior to resuscitation
Procedure: Rats were subjected to 2 hours of hemorrhage, followed by resuscitation as previously described in O. V. Evgenov et al., Crit Care Med., October 2003;31(10):2429-36. Compound 3 was administered at a dose of 6 mg/kg i.v., 5 minutes prior to resuscitation. […] To obtain the results shown in FIG. 7, rats were bled to reach mean BP of 40 mm Hg. This mean BP was maintained for 2 hours, followed by resuscitation with saline at a volume of 2× the shed blood volume. Rats were then observed for 3 hours, and the survival time was recorded. Compound 3 (6 mg/kg) was administered intravenously before the start of resuscitation. To obtain the results shown in FIG. 8, left intraventricular systolic pressure (LVSP), dP/dt, -dP/dt were monitored continuously for 20 minutes from 40 minutes after resuscitation. Compound 3 (6 mg/kg) was administered intravenously before the start of resuscitation. To obtain the results shown in FIG. 9, blood was taken 1 hour after resuscitation. Compound 3 (6 mg/kg) was administered intravenously before the start of resuscitation. To obtain the results shown in FIG. 10, blood was taken at 1 hour after resuscitation. Compound 3 (6 mg/kg) was administered intravenously before the start of resuscitation.

[6] = tested on: rats subjected to myocardial infarction; assay: Myocardial infarction by occlusion and reperfusion of the left anterior descending coronary artery; assay type: in vivo, rat; details: 5 minutes prior to reperfusion
Procedure: Rats were subjected to myocardial infarction by occlusion and reperfusion of the left anterior descending coronary artery as previously described in C. Y. Xiao et al., J Pharmacol Exp Ther., August 2004;310(2):498-504. Compound 3 was administered at doses of 1, 3, or 6 mg/kg i.v., 5 minutes prior to reperfusion.

[7] = tested on: rats subjected to balloon-induced vascular injury; assay: Balloon-induced vascular injury of the carotid artery; assay type: in vivo, rat; details: 1 mg/kg bid
Excerpt: Rats were subjected to balloon-induced vascular injury of the carotid artery as previously described in C. Zhang et al., Am J Physiol Heart Circ Physiol., August 2004;287(2):H659-66.

O=C([O-])c1ccc(C[n+]2ccccc2/C2=C3\C=CC(=N3)/C(c3cccc[n+]3Cc3ccc(C(=O)[O-])cc3)=c3/cc/c4[n]3[Fe]([Cl])[n]3c2ccc3/C(c2cccc[n+]2Cc2ccc(C(=O)[O-])cc2)=C2/C=CC(=N2)\C=4c2cccc[n+]2Cc2ccc(C(=O)[O-])cc2)cc1 [Compound 3]
development of hyperglycemia [1]: prevented the development of hyperglycemia | pancreatic insulin content [1]: normalized pancreatic insulin content | degree of myocardial hypertrophy [2]: reduced the degree of myocardial hypertrophy | degree of myocardial hypertrophy [3]: reduced the degree of myocardial hypertrophy | concentration giving protection (RAW murine macrophages): 3 to 100 µM | protection against the suppression of cell viability (RAW murine macrophages): dose-dependently protected | concentration giving protection [4]: 3 to 100 µM | protection against the suppression of cell viability [4]: dose-dependently protected | blood pressure [5]: effective for stabilizing blood pressure | plasma levels of ALT [5]: reduced | plasma levels of creatine kinase [5]: reduced plasma levels of creatine kinase | survival rate [5]: increasing survival rate | plasma levels of creatine kinase ([6]; 6 mg/kg i.v.): reduced plasma levels of creatine kinase | protective effect ([6]; 6 mg/kg i.v.): significant protective effect | infarct size ([6]; 1, 3, or 6 mg/kg i.v.): effective for reducing infarct size | degree of intimal hypertrophy [7]: reduced the degree of intimal hypertrophy | development of endothelial dysfunction [7]: prevented the development of endothelial dysfunction | loss of endothelium-dependent relaxations on the injured side ([7]; FIG. 13): completely prevented this loss of the endothelial function
